The values that follow come from article doi:10.1101/2023.11.24.568596v1 (biorxiv, 2023).

What all share (conditions): binder
Test [1] deals with T1, NEK1 (Homo sapiens, UniProt Q96PY6).
T1 sequence (Q96PY6 1-1258): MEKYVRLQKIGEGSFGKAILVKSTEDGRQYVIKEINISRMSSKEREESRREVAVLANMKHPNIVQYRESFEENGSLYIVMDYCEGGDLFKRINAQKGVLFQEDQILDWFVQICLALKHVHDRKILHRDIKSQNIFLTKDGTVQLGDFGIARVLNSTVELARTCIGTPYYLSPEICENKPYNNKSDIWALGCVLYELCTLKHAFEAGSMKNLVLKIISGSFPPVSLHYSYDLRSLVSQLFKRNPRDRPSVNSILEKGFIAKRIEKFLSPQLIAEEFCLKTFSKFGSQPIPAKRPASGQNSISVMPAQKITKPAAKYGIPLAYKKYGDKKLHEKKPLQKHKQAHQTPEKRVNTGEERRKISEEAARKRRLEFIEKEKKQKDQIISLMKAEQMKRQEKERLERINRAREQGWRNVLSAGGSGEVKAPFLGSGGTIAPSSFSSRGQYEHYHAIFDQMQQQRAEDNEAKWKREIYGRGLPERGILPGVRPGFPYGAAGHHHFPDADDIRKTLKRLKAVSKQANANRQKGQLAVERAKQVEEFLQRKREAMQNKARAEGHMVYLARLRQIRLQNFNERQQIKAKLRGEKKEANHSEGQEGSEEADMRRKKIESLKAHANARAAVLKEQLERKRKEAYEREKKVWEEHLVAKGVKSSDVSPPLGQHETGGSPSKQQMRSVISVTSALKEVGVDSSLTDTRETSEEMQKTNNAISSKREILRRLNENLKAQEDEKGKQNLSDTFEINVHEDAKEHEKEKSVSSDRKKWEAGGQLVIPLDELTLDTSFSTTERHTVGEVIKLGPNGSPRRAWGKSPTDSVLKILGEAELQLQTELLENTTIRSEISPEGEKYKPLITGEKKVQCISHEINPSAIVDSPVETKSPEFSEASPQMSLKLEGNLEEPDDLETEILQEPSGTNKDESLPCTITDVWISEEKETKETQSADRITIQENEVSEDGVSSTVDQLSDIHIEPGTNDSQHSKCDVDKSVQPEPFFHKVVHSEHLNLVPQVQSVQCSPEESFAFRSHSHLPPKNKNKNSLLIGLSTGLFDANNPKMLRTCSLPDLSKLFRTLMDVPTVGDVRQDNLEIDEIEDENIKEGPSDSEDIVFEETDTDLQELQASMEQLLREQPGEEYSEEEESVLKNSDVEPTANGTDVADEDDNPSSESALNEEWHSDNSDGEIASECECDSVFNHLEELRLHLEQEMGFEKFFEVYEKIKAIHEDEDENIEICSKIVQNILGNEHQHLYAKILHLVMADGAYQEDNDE

Test [2] concerns the target T2, GAK (Homo sapiens, UniProt O14976).
T2 sequence (O14976 1-1311): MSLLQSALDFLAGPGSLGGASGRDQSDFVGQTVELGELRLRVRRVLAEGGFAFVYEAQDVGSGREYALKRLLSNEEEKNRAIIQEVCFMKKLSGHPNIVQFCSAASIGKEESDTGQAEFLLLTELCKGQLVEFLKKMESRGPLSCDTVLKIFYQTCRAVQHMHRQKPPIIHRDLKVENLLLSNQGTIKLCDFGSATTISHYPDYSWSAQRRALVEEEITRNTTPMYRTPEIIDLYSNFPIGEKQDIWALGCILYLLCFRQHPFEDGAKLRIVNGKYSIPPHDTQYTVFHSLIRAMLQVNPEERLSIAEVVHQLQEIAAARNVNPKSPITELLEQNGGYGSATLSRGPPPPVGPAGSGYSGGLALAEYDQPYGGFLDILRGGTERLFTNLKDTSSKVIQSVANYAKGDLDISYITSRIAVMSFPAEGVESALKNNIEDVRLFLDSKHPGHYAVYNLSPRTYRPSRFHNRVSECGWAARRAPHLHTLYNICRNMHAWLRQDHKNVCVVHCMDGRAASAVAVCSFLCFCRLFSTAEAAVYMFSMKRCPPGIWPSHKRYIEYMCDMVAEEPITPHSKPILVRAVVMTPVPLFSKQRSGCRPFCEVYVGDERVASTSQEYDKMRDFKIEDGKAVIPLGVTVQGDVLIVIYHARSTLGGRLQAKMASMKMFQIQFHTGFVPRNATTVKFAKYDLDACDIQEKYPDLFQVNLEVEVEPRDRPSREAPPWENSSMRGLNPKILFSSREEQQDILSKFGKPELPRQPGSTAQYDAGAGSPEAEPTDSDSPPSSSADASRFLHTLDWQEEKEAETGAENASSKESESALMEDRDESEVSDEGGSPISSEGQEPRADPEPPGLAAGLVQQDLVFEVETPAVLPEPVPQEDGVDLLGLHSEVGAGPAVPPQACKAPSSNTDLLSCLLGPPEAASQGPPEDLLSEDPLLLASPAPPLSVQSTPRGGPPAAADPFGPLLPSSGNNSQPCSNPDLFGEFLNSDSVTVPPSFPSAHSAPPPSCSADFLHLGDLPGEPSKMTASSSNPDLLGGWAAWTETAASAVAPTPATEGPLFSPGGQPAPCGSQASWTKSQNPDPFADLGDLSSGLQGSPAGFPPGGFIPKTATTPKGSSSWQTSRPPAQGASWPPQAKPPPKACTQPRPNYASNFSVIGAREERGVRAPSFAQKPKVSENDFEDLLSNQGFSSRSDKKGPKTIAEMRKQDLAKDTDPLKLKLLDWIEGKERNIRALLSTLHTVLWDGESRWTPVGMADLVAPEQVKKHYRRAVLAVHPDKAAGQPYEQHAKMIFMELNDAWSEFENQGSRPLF

In test [3] the target is T3, PHKG2 (Homo sapiens, UniProt P15735).
T3 sequence (P15735 1-406): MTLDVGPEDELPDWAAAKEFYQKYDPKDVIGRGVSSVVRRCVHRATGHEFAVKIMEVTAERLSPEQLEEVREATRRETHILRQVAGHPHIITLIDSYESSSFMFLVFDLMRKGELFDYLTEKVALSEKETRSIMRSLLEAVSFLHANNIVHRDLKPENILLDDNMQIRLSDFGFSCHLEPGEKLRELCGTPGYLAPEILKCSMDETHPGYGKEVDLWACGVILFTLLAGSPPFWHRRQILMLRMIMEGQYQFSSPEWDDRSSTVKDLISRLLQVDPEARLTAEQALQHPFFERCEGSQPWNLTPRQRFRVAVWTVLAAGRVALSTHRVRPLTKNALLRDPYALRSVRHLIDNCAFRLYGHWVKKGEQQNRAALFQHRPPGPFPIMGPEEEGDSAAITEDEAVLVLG

On to `COc1cc(N2CCN(C)CC2)ccc1Nc1ncc2cc(-c3ccc(-c4cccc(C)n4)cc3Cl)c(=O)n(CCCCN)c2n1` [compound 36, 8-(4-Aminobutyl)-6-(2-chloro-4-(6-methylpyridin-2-yl)phenyl)-2-((2-methoxy-4-(4-methylpiperazin-1-yl)phenyl)amino)pyrido[2,3-d]pyrimidin-7(8H)-one], for which the “dTm 36” value turned out to be 0.0 °C in test [1], 11.7 °C in test [2] and 8.0 °C in test [3].

As to `COc1ccc(O)c(Nc2ncc3cc(-c4ccc(-c5cccc(C)n5)cc4Cl)c(=O)n(CCCCN)c3n2)c1` [compound 34, 8-(4-Aminobutyl)-6-(2-chloro-4-(6-methylpyridin-2-yl)phenyl)-2-((2-hydroxy-5-methoxy-phenyl)amino)pyrido[2,3-d]pyrimidin-7(8H)-one], the figures for the “dTm 34” value in test [1], in test [2] and in test [3] were -1.0 °C, 9.3 °C and 3.5 °C, respectively.

On to `COc1cc(N2CCOCC2)ccc1Nc1ncc2cc(-c3ccc(-c4cccc(C)n4)cc3Cl)c(=O)n(CCCCN)c2n1` [compound 35, 8-(4-Aminobutyl)-6-(2-chloro-4-(6-methylpyridin-2-yl)phenyl)-2-((2-methoxy-4-morpholino-phenyl)amino)pyrido[2,3-d]pyrimidin-7(8H)-one], for which the “dTm 35” value in test [1] was -0.7 °C; in test [2], 13.5 °C; in test [3] it was 8.8 °C.

For the compound `Cc1cccc(-c2ccc(-c3cc4cnc(Nc5ccc(F)c(CO)c5)nc4n(CCCCN)c3=O)c(Cl)c2)n1` [compound 33, 8-(4-Aminobutyl)-6-(2-chloro-4-(6-methylpyridin-2-yl)phenyl)-2-((4-fluoro-3-(hydroxymethyl)phenyl)amino)pyrido[2,3-d]pyrimidin-7(8H)-one], the “dTm 33” value is -3.6 °C in test [1], 12.5 °C in test [2] and 6.2 °C in test [3].
